Test results as given in US10398713B2, “Compositions and methods for the treatment of neurodegenerative and other diseases” (Glialogix, Inc., priority 2013, dated 2019).

What was measured:
activated astrocytes = test: Quantitative immunohistochemistry of astrocyte activation (anti-GFAP) in the spinal cord of SOD1 mice; type: in vivo, mouse
Experimental: Two ages of mice were chosen for this analysis: day 85, when SOD1 mice show no overt sign of the ALS-like symptomology, and day 100, when SOD1 mice typically begin displaying the first signs of ALS-like symptomology, such as partial collapse of leg extension towards lateral midline (weakness) or trembling of hind legs during a tail suspension test. For the immunohistochemical studies, a total of 48 mice were divided into 6 cohorts of 8 mice each (4 females and 4 males) as shown in Table 5.
(§1) 5 mL of 0.1 N NaOH was added and the tube gently sonicated. Approximately 140 μL of 1 N HCl was then added to bring the pH to 8.00. The resulting 20 mg/mL solution was delivered by intraperitoneal injection at 10 ml/kg. Vehicle treated mice were administered saline.
Mice were sacrificed by CO2 asphyxiation according to IACUC approved protocols. The spinal cord was extruded with cold PBS into a bath of cold PBS from the vertebral column of mice using an 18 gauge needle inserted in the sacral vertebral column to a friction fit. Upon extrusion, the spinal cord tissue was rinsed and dropped into 4% paraformaldehyde for 24 hours at room temperature (RT, approximately 25° C.). The tissue was then transferred to a 1× phosphate buffered saline (PBS) solution. Samples were then processed by TissueTek processors for paraffin embedding. Spinal cord samples were then embedded in paraffin blocks and oriented for transverse sectioning. Spinal cord samples were sectioned at 10 microns thickness. Three representative sections were cut from lumbar, thoracic and cervical regions of the spinal cord. Samples were pretreated with Pronase for 20 minutes at RT, followed by treatment with 3% H2O2 for 12 minutes at RT. Horse serum was added to 2% and samples incubated for 20 minutes at RT. The samples were then incubated with the primary antibody (Anti-xCT; purchased from Abcam (Cambridge, Mass.); Catalog #Ab37185; diluted 1:500 in PBS) overnight at 4° C. The secondary antibody (Biotin labeled goat anti-rabbit IgG; 1:500 dilution in PBS) was then added and the reaction incubated overnight at RT. Reaction products were developed using the Vector ABC system (Vector Labs, Burlingame, Calif.) using avidin-conjugated horseradish peroxidase. xCT expression was visualized by addition of the chromogenic substrate DAB (3,3′-diaminobenzidine) for 10 minutes at RT. Each stained section was imaged at objectives: 4×, 10×, 20× and 40×. For each objective image, light parameters were optimized and kept consistent across all sections. For SLC7A11 analysis, all images that were captured at 20× were then imported into ImageJ freeware (NIH, Bethesda, Md.). A maximum entropy threshold algorithm was applied to all images in a completely blinded fashion to filter out all pixels that were not stained as DAB positive. The key parameter measured and reported is area fraction. Area fraction is the proportion of total pixels that are DAB positive in the ventral horn of the spinal cord. All statistical analyses were performed using JMP® 7.0, SAS Institute, Inc. Area fraction was compared with respect to treatment using 1-way ANOVA analysis, with a p-value of 0.05 considered significant.
The same test mice, spinal cord preparations and methods of analysis used in the neuroinflammatory study were identical to those used in the xCT quantitation study. Two neuroinflammatory cell populations were quantitated: (1) activated microglial cells using an antibody to the F4/80 antigen, and (2) activated astrocytes, using an antibody to the GFAP antigen. For each objective image, light parameters were optimized and kept consistent across all sections. Images that were captured at 20× were then imported into ImageJ freeware (NIH, Bethesda, Md.). A maximum entropy threshold algorithm was applied to all images in a completely blinded fashion to filter out all pixels that were not stained as DAB positive. 20× images were analyzed in a blinded fashion and mean area fraction occupied by stain was tabulated. […]

SOD1^G93A mice = test: Survival study in SOD1 G93A mice (neurological score, survival); type: in vivo, mouse; details: for Expected Days, Sulfasalazine: predicted from vehicle cohort if no effect
Experimental: High-copy SOD1^G93A transgenic mice were derived from the B6SJL-TgN(SOD1G93A)1Gur strain, obtained from The Jackson Laboratory (Bar Harbor, Me.) and originally produced by Gurney, e.g. Gurney et al., Science 264: 1772-1775 (1994). Animal experiments with the SOD1 model were performed at ALS Therapy Development Institute (herein “ALS-TDI”; Cambridge, Mass.). All mice were genotyped to verify copy number of the SOD1 transgene. Animal handling and study protocols were as previously described by ALS-TDI, e.g. Scott et al., Amyotroph. Lateral Scler. 9: 4-15 (2008).
Groups were balanced with respect to gender and body weight within gender. In addition, groups were age-matched and littermate-matched. […] Each cohort of was balanced between males and females.
as §1
Neurological scores were assessed daily from day 50 for both hind legs. The neurological score was based on a scale of 0 to 4. Criteria used to assign each score level are from Scott et al., Amyotroph. Lateral Scler. 9: 4-15 (2008) and are described in Table 2.
The date of definitive neurological disease was the day that the mouse first scored a “2” on the Neurological Score. Upon reaching a score of Neurological Score of “4”, mice were euthanized and the date of death was recorded.
Survival after onset of definitive neurological disease is defined as the total number of days the mice lived after reaching definitive neurological disease (Neurological Score of 2) and before death (Neurological Score of 4). Survival after onset of definitive neurological disease was analyzed in two ways.
The first day that a neurological score was determined was day 50 of age; measurements were collected daily afterwards until death.
The three categories were: (1) days spent before definitive neurological disease, e.g. with a neurological score of 0 or 1; (2) days spent during definitive neurological disease, e.g. with a neurological score of 2 or 3; and (3) days at death, e.g. with a neurological score of 4. By definition, mice were only in the dead state for 1 day, as they were euthanized upon reaching a neurological score of 4; this category was included as a positive control to ensure the integrity of the data and analysis.

[1] = test system: mouse model (anti-epileptic effect); details: approximately 260-320 mg/kg intraperitoneal; cited from earlier work
[2] = SOD1, mouse, in vivo, ip, 200 mg/kg
Experimental: The zero time point was taken before drug was administered to serve as a negative control for drug quantitation. […] Spinal cords and blood plasma samples (50 μl) were homogenized in 150 μl of phosphate buffer and then extracted by a mixture of methylene chloride and MTBE (1:4 dilution). Sample extracts were analyzed and quantitated by high-performance liquid chromatography using a BetaMax Acid column maintained at 35° C. The mobile phase was nebulized using heated nitrogen in a Z-spray source/interface and the ionized compositions were detected and identified using a tandem quadrupole mass spectrometer (MS/MS).

[3] = sulfasalazine vs vehicle, SOD1 mice, 200 mg/kg IP two times per day

In the case of O=C(O)c1cc(/N=N/c2ccc(S(=O)(=O)Nc3ccccn3)cc2)ccc1O [Sulfasalazine, 2-hydroxy-5-[(E)-2-{4-[(pyridin-2-yl)sulfamoyl]phenyl}diazen-1-yl]benzoic acid], the “Decreased activation in sulfasalazine treated SOD1 vs. vehicle treated SOD1 mice” value (“Decreased activation” for short) (activated astrocytes; Cervical, Day 85) is reported as “No decrease”, the “Decreased activation” value (activated astrocytes; Cervical, Day 100, p < 0.01) is reported as “significantly lowered” and the “Decreased activation” value (activated astrocytes; Cervical, Day 100, p < 0.01, listed as sulfasalazine) is reported as “Strong decrease”. The “Decreased activation” value (activated astrocytes; Combined (cervical, thoracic, lumbar), Day 85, p < 0.05) was “Decrease”, the “Decreased activation” value (activated astrocytes; Combined (cervical, thoracic, lumbar), Day 100) was “Trend” and the “Decreased activation” value (activated astrocytes; Lumbar, Day 85, p < 0.05) was “significantly lowered”. The “Decreased activation” value (activated astrocytes; Lumbar, Day 85, p < 0.05, listed as sulfasalazine) was “Decrease”, the “Decreased activation” value (activated astrocytes; Lumbar, Day 100) was “did not effect” and the “Decreased activation” value (activated astrocytes; Lumbar, Day 100, listed as sulfasalazine) was “No decrease”. For the same compound, the “Decreased activation” value (activated astrocytes; Thoracic, Day 85) was “Trend”, the “Decreased activation” value (activated astrocytes; Thoracic, Day 100) was “No decrease” and the “increase of median absolute survival” value (SOD1^G93A mice; SOD1 mice vs vehicle, 200 mg/kg IP two times per day, p=0.07) was 3.5 days. The “effect on time of disease onset” value (SOD1^G93A mice; SOD1 mice, 200 mg/kg IP two times per day) was “no statistical effect”, the “Expected Days, Sulfasalazine” value (SOD1^G93A mice; Total Observations) was 2050 days and the “Observed Days Minus Expected Days” value (SOD1^G93A mice; before definitive disease onset (neurological score 0 or 1)) was “no significant difference”. For the same compound, the “Observed Days Minus Expected Days” value (SOD1^G93A mice; death (neurological score 4)) was “no significant difference”, the “Observed Days, Sulfasalazine” value (SOD1^G93A mice; death (neurological score 4), cohort n=27) was 27 days and the “Expected Days, Sulfasalazine” value (SOD1^G93A mice; death (neurological score 4)) was 27 days. The “Absolute Change in Mean Day of Death” value (SOD1^G93A mice; [3]) was 3.7 days, the “Absolute Change in Mean Day of Definitive Neurological Disease” value (SOD1^G93A mice; [3]) was −1.2 day and the “Absolute Change in Total Days of Survival after Onset of Definitive Disease” value (SOD1^G93A mice; [3]) was 4.9 days. The “Percent Change in Mean Day of Death” value (SOD1^G93A mice; [3]) was 2.9%, the “Percent Change in Mean Day of Definitive Neurological Disease” value (SOD1^G93A mice; [3]) was −1.0% and the “Percent Change in Total Days of Survival after Onset of Definitive Disease (increased lifespan after onset)” value (SOD1^G93A mice; sulfasalazine vs vehicle, SOD1 mice, 200 mg/kg IP two times per day, 200 mg/kg) was 39%. The “Expected Days, Sulfasalazine” value (SOD1^G93A mice; total days before definitive disease onset (neurological score 0 or 1), normalized for number of animals) was 1722 days, the “Expected Days, Sulfasalazine” value (SOD1^G93A mice; total days in definitive neurological disease (neurological score 2 or 3)) was 301 days and the “duration of anti-epileptic effect” value [1] was “disappears by three hours after administration”. For the same compound, the “time therapeutically relevant concentrations were present in the spinal cord” value [2] was 2 to 2.5 h.
